Earlier results on one molecule are cited in patent US11083779B2, “Method for treatment of encephalopathy” (priority 2018, dated 2021).

For this data set, the system named is toxic encephalopathy. The conditions noted are these: PIRACETAM i.v. 10-15 minutes before transcranial electrical stimulation, two steps (77 Hz, 10 Hz).

For `NC(=O)CN1CCCC1=O` [PIRACETAM®, PIRACETAM], the “patient symptoms after treatment” value was “decrease of headaches, giddiness and the improvement of sleep”.
